According to ChEMBL document CHEMBL1145338, “Novel 2-aminopyrimidine carbamates as potent and orally active inhibitors of Lck: synthesis, SAR, and in vivo antiinflammatory activity” (J Med Chem, 2006):

Tests used:
[1] = biological target: Mitogen-activated protein kinase 14 (Homo sapiens, UniProt Q16539); test: Inhibition of p38alpha
[2] = biological target: Tyrosine-protein kinase Lck (Homo sapiens, UniProt P06239)
Description: Inhibition of Lck in presence of 0.5 uM ATP by HTRF kinase assay

[3] = biological target: Vascular endothelial growth factor receptor 2 (Homo sapiens, UniProt P35968)
[4] = biological target: Proto-oncogene tyrosine-protein kinase Src (Homo sapiens, UniProt P12931); test: Inhibition of Src
[5] = system: T-cell; test: Inhibition of anti-CD3/CD28-induced IL2 secretion in human T cells; type: functional, cell-based
[6] = system: T-cell; test: Inhibition of human T cell proliferation by mixed lymphocyte reaction; type: functional, cell-based
[7] = AUC (0-infinity) in Sprague-Dawley rat at 1 mg/kg, iv; type: ADME, organism-based; set-up: time infinity, dose 1 mg/kg, route intravenous; conditions: plasma
[8] = system: Jurkat; test: Antiproliferative activity against Jurkat cells; type: functional, cell-based; conditions: Homo sapiens
[9] = system: T-cell; test: Inhibition of anti-CD3/CD28-induced T cell proliferation; type: functional, cell-based; conditions: Homo sapiens
[10] = biological target: Insulin-like growth factor 1 receptor (Homo sapiens, UniProt P08069)
[11] = biological target: Tyrosine-protein kinase JAK2 (Homo sapiens, UniProt O60674)
[12] = system: Mus musculus; test: Inhibition of anti-CD3-induced IL2 production in BALB/c mouse at 30 mg/kg, po; type: functional
[13] = Cmax in Sprague-Dawley rat at 5 mg/kg, po; type: ADME, organism-based; set-up: dose 5 mg/kg, route oral; conditions: in vivo
[14] = system: T-cell; test: Inhibition of anti-CD3/CD28-induced IL2 secretion in T cells stimulated with phorbol myristic acid and calcium ionophore; type: functional, cell-based; conditions: Homo sapiens
[15] = Protein binding in human plasma; type: ADME, cell-free; conditions: read-out: PPB (converted)
[16] = Clearance in Sprague-Dawley rat at 1 mg/kg, iv; type: ADME, organism-based; set-up: dose 1 mg/kg, route intravenous; conditions: in vivo
[17] = Tmax in Sprague-Dawley rat at 5 mg/kg, po; type: ADME, organism-based; set-up: dose 5 mg/kg, route oral; conditions: in vivo
[18] = biological target: Mitogen-activated protein kinase 10 (Homo sapiens, UniProt P53779)
[19] = Half life in Sprague-Dawley rat at 1 mg/kg, iv; type: ADME, organism-based; set-up: dose 1 mg/kg, route intravenous; conditions: in vivo
[20] = biological target: Cyclin-dependent kinase 2 (Homo sapiens, UniProt P24941); test: Inhibition of CDK2
[21] = Volume of distribution in Sprague-Dawley rat at 1 mg/kg, iv; type: ADME, organism-based; set-up: dose 1 mg/kg, route intravenous; conditions: in vivo, read-out: Vss
[22] = biological target: Tyrosine-protein kinase BTK (Homo sapiens, UniProt Q06187)
[23] = biological target: Tyrosine-protein kinase SYK (Homo sapiens, UniProt P43405); test: Inhibition of Syk
[24] = system: T-cell; test: Inhibition of T cell receptor zeta chain phosphorylation; type: functional, cell-based; conditions: Homo sapiens
[25] = system: Mus musculus; test: Inhibition of anti-CD3-induced IL2 production in BALB/c mouse at 100 mg/kg, po; type: functional
[26] = Protein binding in rat plasma; type: ADME, cell-free; conditions: read-out: PPB (converted)
[27] = biological target: T1, Tyrosine-protein kinase JAK3 (Homo sapiens, UniProt P52333)
T1 sequence (P52333 whole entry): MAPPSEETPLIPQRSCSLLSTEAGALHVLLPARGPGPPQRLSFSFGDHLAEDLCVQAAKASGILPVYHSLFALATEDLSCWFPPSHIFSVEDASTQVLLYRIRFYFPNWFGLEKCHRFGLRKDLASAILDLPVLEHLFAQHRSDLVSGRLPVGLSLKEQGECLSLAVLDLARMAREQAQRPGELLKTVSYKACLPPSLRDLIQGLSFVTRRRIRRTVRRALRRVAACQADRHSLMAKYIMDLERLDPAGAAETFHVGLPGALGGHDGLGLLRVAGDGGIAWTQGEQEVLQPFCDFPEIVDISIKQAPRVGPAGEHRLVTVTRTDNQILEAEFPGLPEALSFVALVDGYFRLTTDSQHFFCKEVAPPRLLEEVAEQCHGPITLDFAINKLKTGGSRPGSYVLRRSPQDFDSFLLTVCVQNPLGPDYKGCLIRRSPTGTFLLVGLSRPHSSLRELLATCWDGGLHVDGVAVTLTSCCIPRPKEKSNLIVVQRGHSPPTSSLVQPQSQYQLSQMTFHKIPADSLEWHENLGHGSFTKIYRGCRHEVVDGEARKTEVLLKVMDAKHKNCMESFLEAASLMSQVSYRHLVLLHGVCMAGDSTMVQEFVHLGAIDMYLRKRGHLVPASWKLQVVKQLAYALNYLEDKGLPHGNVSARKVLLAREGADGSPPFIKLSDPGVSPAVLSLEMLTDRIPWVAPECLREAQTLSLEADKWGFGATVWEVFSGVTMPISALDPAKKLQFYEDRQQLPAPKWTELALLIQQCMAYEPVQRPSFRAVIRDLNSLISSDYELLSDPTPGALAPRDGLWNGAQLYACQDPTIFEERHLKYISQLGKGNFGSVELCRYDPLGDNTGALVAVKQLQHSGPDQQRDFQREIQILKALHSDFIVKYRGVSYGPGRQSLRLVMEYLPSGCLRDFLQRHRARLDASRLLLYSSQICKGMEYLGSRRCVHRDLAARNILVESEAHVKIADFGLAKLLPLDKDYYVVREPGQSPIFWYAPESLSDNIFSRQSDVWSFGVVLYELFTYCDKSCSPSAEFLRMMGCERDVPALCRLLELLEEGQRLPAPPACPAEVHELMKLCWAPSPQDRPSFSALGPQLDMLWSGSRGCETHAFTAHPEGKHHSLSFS

[28] = AUC (0-infinity) in Sprague-Dawley rat at 5 mg/kg, po; type: ADME, organism-based; set-up: time infinity, dose 5 mg/kg, route oral; conditions: plasma
[29] = Bioavailability in Sprague-Dawley rat at 5 mg/kg, po; type: ADME, organism-based; conditions: in vivo
[30] = biological target: Protein kinase C theta type (Homo sapiens, UniProt Q04759); test: Inhibition of PKCtheta
[31] = system: Mus musculus; test: Inhibition of anti-CD3-induced IL2 production in BALB/c mouse at 10 mg/kg, po; type: functional
[32] = species: Homo sapiens; test: Inhibition of anti-CD3/CD28-induced IL2 secretion in human whole blood T cell; type: functional

Chain of Mitogen-activated protein kinase 14 (Q16539 whole entry): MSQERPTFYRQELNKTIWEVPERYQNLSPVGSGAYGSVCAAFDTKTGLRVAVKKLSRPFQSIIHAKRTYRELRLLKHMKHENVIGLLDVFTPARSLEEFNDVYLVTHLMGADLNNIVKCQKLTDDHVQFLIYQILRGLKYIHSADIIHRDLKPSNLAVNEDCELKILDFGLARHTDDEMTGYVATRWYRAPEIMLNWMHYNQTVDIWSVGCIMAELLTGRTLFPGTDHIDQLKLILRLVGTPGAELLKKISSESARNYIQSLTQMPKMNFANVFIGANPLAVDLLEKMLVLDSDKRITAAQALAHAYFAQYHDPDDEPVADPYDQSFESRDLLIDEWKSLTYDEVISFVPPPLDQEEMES
Chain of Proto-oncogene tyrosine-protein kinase Src (P12931 2-536 limits assumed): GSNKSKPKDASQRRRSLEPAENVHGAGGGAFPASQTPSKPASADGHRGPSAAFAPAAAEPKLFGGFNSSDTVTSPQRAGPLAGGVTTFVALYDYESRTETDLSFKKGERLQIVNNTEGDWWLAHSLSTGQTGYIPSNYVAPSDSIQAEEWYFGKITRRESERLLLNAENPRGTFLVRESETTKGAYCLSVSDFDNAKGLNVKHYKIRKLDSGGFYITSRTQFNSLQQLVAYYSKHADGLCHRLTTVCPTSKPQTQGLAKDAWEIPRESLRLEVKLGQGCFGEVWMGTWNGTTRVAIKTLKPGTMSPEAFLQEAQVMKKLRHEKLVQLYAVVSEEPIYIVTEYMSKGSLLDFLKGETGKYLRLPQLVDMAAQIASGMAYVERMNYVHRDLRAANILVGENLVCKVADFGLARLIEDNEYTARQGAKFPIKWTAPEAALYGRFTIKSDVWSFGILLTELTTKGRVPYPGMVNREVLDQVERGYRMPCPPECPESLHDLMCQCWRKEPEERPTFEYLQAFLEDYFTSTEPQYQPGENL
Chain of Tyrosine-protein kinase Lck (P06239 whole entry): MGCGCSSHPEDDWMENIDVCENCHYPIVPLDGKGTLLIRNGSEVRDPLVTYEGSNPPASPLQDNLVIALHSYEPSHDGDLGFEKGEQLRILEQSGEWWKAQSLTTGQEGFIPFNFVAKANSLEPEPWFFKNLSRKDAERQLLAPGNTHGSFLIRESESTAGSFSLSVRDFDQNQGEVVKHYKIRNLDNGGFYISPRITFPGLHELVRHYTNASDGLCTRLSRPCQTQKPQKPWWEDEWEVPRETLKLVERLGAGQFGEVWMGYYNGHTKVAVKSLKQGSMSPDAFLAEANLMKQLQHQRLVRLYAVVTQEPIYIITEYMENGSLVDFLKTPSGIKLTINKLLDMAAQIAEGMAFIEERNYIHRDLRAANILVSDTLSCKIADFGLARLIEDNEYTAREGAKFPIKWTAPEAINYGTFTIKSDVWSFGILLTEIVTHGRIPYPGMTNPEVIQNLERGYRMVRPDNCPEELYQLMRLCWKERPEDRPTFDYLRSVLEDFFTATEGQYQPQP
Chain of Vascular endothelial growth factor receptor 2 (P35968 whole entry): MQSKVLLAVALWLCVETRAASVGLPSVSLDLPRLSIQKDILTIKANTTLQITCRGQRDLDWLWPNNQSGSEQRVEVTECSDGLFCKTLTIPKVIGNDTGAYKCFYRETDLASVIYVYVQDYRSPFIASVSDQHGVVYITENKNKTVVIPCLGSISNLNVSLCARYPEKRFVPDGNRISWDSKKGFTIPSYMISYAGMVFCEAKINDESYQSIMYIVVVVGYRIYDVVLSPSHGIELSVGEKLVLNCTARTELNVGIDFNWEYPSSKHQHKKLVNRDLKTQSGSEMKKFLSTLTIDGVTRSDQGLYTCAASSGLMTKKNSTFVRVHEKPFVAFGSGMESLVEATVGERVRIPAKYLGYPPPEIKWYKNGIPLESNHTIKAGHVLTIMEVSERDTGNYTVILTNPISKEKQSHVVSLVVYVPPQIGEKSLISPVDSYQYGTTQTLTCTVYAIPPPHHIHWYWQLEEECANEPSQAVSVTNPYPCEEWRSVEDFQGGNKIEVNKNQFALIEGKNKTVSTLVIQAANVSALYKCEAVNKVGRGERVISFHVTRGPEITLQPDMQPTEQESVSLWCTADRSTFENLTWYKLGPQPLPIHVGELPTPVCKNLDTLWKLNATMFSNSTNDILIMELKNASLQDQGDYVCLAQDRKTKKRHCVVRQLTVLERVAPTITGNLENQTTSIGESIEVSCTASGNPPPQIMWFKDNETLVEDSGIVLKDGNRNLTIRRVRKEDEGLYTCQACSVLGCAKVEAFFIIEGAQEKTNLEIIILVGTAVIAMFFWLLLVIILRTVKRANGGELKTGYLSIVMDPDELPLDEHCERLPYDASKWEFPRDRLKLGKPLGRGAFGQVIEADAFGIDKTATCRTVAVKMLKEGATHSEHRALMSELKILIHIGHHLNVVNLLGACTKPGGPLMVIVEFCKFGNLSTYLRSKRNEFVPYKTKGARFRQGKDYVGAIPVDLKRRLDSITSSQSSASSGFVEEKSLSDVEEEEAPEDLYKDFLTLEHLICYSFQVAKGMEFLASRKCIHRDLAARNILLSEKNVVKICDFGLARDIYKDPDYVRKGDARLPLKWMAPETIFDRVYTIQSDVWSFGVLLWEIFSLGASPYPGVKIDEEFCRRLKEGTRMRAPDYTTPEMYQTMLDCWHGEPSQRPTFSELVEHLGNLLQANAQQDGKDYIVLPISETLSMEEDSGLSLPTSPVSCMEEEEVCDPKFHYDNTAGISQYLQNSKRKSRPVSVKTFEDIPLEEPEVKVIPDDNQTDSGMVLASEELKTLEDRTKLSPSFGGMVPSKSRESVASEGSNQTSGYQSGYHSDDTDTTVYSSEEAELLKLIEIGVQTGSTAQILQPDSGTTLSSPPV
Chain of Tyrosine-protein kinase JAK2 (O60674 whole entry): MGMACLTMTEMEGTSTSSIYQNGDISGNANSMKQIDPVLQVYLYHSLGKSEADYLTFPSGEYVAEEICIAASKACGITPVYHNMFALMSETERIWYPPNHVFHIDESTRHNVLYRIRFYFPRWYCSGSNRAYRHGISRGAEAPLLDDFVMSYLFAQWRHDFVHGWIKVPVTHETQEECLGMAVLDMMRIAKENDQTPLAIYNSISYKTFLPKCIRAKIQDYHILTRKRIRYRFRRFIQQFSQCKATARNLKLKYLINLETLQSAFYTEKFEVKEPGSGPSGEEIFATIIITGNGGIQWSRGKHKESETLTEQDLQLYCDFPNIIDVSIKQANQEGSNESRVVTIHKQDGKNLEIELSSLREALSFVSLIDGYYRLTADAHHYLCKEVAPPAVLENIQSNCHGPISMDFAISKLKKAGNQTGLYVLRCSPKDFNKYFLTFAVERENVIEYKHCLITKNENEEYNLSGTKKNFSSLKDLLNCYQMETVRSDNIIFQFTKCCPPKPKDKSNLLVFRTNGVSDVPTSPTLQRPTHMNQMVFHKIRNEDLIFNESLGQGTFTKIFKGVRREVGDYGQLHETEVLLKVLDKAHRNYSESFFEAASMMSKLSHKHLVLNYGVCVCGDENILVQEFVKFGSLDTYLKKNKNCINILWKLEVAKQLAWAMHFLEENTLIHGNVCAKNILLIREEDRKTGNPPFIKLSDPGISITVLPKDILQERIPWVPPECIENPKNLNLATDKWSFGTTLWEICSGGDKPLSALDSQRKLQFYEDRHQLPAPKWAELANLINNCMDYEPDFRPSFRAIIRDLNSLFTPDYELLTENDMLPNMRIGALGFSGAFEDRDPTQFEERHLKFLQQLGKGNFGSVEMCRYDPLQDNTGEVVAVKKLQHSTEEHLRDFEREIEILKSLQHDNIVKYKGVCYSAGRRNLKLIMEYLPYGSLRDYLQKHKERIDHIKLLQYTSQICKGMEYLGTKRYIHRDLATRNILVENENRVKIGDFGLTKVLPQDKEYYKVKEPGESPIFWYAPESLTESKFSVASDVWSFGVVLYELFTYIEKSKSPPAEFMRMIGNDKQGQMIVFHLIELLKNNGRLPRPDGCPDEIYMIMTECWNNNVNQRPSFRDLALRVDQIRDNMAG
Chain of Tyrosine-protein kinase BTK (Q06187 whole entry): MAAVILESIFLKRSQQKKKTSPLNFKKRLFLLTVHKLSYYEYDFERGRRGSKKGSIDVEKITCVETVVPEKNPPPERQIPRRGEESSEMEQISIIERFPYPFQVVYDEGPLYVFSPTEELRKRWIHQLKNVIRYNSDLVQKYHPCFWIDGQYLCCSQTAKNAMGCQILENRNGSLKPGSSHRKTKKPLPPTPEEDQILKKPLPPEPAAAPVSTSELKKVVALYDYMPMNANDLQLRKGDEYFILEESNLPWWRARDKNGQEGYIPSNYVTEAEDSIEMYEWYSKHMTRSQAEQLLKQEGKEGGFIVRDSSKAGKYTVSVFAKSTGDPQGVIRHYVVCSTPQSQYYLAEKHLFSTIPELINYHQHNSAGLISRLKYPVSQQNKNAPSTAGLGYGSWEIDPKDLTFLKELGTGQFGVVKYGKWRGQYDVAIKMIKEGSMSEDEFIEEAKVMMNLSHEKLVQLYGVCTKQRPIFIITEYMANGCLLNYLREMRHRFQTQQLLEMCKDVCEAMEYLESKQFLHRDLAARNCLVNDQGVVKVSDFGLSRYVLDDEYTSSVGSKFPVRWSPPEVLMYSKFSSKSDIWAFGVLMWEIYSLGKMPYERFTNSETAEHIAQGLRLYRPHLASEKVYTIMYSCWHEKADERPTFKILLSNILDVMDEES
Chain of Mitogen-activated protein kinase 10 (P53779 whole entry): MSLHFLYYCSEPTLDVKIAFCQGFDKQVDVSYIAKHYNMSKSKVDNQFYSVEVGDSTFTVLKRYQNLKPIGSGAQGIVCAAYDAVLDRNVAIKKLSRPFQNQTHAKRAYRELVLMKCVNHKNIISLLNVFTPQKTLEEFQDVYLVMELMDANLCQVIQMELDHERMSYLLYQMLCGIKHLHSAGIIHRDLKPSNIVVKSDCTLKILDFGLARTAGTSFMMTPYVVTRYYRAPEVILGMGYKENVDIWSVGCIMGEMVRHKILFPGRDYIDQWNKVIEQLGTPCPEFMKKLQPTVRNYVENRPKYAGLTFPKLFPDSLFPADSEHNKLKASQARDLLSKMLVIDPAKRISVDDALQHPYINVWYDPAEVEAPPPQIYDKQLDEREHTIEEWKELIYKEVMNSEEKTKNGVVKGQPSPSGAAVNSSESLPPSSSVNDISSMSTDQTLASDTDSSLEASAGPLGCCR

## Cc1cccc(C)c1OC(=O)N(c1ccc(-c2ccccc2)cc1)c1ccnc(Nc2ccc(N3CCN(C)CC3)cc2)n1
[1]
  IC50: 1800 nM
[2]
  IC50: 13 nM
[3]
  IC50: 590 nM
[4]
  IC50: 98 nM

## COc1ccccc1N(C(=O)Oc1c(C)cccc1C)c1ccnc(Nc2ccc(N3CCN(C)CC3)cc2)n1
[1]
  IC50: 420 nM
[2]
  IC50: 1 nM
[3]
  IC50: 190 nM
[4]
  IC50: 4 nM

## COc1ccc(N(C(=O)Oc2c(C)cccc2C)c2ccnc(Nc3ccc(N4CCN(C)CC4)c(F)c3)n2)c(OC)c1
[1]
  IC50: 1000 nM
[2]
  IC50: 1 nM
[3]
  IC50: 260 nM
[5]
  IC50: 200 nM
[4]
  IC50: 2 nM

## COc1ccc(N(C(=O)Oc2c(C)cccc2C)c2ccnc(Nc3cc(OC)c(OCCN4CCN(C)CC4)c(OC)c3)n2)c(OC)c1
[1]
  IC50: 180 nM
[2]
  IC50: 1 nM
[3]
  IC50: 230 nM
[5]
  IC50: 290 nM
[4]
  IC50: 1 nM

## COc1ccc(N(C(=O)Oc2c(C)cccc2C)c2ccnc(Nc3ccc(OCCN(C)C)cc3)n2)c(OC)c1
[1]
  IC50: 2100 nM
[2]
  IC50: 1 nM
[3]
  IC50: 220 nM
[5]
  IC50: 270 nM
[4]
  IC50: 4 nM

## COc1ccc(N(C(=O)Oc2c(C)cccc2C)c2ccnc(Nc3ccc(N4CCN(C)CC4)cc3)n2)c(OC)c1
[1]
  IC50: 1300 nM
[2]
  IC50: 2 nM
[3]
  IC50: 640 nM
[5]
  IC50: 1900 nM
[4]
  IC50: 6 nM

## COc1ccc(N(C(=O)Oc2c(C)cccc2C)c2ccnc(Nc3ccc(OCCCN(C)C)cc3)n2)c(OC)c1
[1]
  IC50: 2100 nM
[2]
  IC50: 1 nM
[3]
  IC50: 230 nM
[5]
  IC50: 230 nM
[4]
  IC50: 4 nM

## COc1ccc(N(C(=O)Oc2c(C)cccc2C)c2ccnc(Nc3ccc(OCCCN4CCN(C)CC4)c(F)c3)n2)c(OC)c1
[1]
  IC50: 1300 nM
[2]
  IC50: 1 nM
[3]
  IC50: 590 nM
[5]
  IC50: 510 nM
[4]
  IC50: 5 nM

## COc1ccc(N(C(=O)Oc2c(C)cccc2C)c2ccnc(Nc3ccc(OCCCN4CCCCC4)c(F)c3)n2)c(OC)c1
[1]
  IC50: 6800 nM
[2]
  IC50: 2 nM
[3]
  IC50: 620 nM
[5]
  IC50: 860 nM
[4]
  IC50: 12 nM

## Cc1cccc(C)c1OC(=O)N(c1cccc(-c2ccccc2)c1)c1ccnc(Nc2ccc(N3CCN(C)CC3)cc2)n1
[1]
  IC50: 8000 nM
[2]
  IC50: 49 nM
[3]
  IC50: 1900 nM
[4]
  IC50: 500 nM

## COc1ccc(N(C(=O)Oc2c(C)cccc2C)c2ccnc(Nc3ccc(N4CCN(C)CC4)c(OC)c3)n2)c(OC)c1
[1]
  IC50: 440 nM
[2]
  IC50: 1 nM
[3]
  IC50: 140 nM
[5]
  IC50: 140 nM
[4]
  IC50: 2 nM

## COc1ccc(N(C(=O)Oc2c(C)cccc2C)c2ccnc(Nc3ccc(N4CCN(C)CC4)cc3)n2)cc1
[1]
  IC50: 320 nM
[2]
  IC50: 12 nM
[3]
  IC50: 420 nM
[4]
  IC50: 3 nM

## Cc1cccc(C)c1OC(=O)N(c1ccnc(Nc2ccc(N3CCN(C)CC3)cc2)n1)c1ccc(F)cc1OC(C)C
[1]
  IC50: 1200 nM
[2]
  IC50: 1 nM
[3]
  IC50: 4800 nM
[4]
  IC50: 13 nM

## COc1ccc(N(C(=O)Oc2c(C)cccc2C)c2ccnc(Nc3cc(OC)c(OCCN4CCOCC4)c(OC)c3)n2)c(OC)c1
[1]
  IC50: 1200 nM
[2]
  IC50: 1 nM
[3]
  IC50: 170 nM
[5]
  IC50: 410 nM
[4]
  IC50: 2 nM

## Cc1cccc(C)c1OC(=O)N(c1ccc2ccccc2c1)c1ccnc(Nc2ccc(N3CCN(C)CC3)cc2)n1
[1]
  IC50: 740 nM
[2]
  IC50: 10 nM
[3]
  IC50: 130 nM
[4]
  IC50: 14 nM

## COc1ccc(N(C(=O)Oc2c(C)cccc2C)c2ccnc(Nc3ccc(OCCCN4CCN(C)CC4)c(OC)c3)n2)c(OC)c1
[1]
  IC50: 2300 nM
[2]
  IC50: 1 nM
[3]
  IC50: 210 nM
[5]
  IC50: 100 nM
[4]
  IC50: 2 nM

## COc1ccc(N(C(=O)Oc2c(C)cccc2C)c2ccnc(Nc3cc(OC)c(N4CCN(C)CC4)c(OC)c3)n2)c(OC)c1
[6]
  IC50: 590 nM
[1]
  IC50: 430 nM
[2]
  IC50: 1 nM
[3]
  IC50: 170 nM
[4]
  IC50: 1 nM

## COc1ccc(N(C(=O)Oc2c(C)cccc2C)c2ccnc(Nc3cc(OC)c(OCCCN4CCN(C)CC4)c(OC)c3)n2)c(OC)c1
[7]
  AUC(0-inf): 568 ng·h/mL
[8]
  IC50: 1700 nM
[9]
  IC50: 490 nM
[10]
  IC50: > 25000 nM
[11]
  IC50: 240 nM
[12]
  inhibition in vivo at 30 mg/kg: 21%
[13]
  Cmax: 22 ng/mL
[14]
  IC50: 1800 nM
[1]
  IC50: 530 nM
[15]
  fraction unbound: 0.013
[16]
  clearance: 30.5 mL/min/kg
[17]
  Tmax: 4 h
[18]
  IC50: > 5000 nM
[19]
  half-life: 4.6 h
[20]
  IC50: > 40000 nM
[21]
  Vd: 11.3 L/kg
[22]
  IC50: 100 nM
[23]
  IC50: 200 nM
[5]
  IC50: 61 nM
[24]
  IC50: 780 nM
[25]
  inhibition in vivo at 100 mg/kg: 60%
[26]
  fraction unbound: 0.016
[27]
  IC50: 1200 nM
[28]
  AUC(0-inf): 175 ng·h/mL
[29]
  bioavailability: 6%
[30]
  IC50: > 5000 nM
[4]
  IC50: 1 nM
[31]
  inhibition in vivo at 10 mg/kg: 11%
[32]
  IC50: 3000 nM

## Cc1cccc(C)c1OC(=O)N(c1ccccc1)c1ccnc(Nc2ccc(N3CCN(C)CC3)cc2)n1
[1]
  IC50: 160 nM
[2]
  IC50: 14 nM
[3]
  IC50: 190 nM
[4]
  IC50: 10 nM
